Assay results: patent publication EP1457483A1, “Cationic lipids with serine backbone” (Ruhr-Universität Bochum, priority 2003, dated 2004)

Test system: COS-7 cells
Assay: Automated lipofection screening: GFP-luciferase reporter gene transfer (luciferase activity per protein content)
Type: cell-based, African green monkey
Settings: for Maximum transfection efficiency, MW (mean value), Helper lipid: DOPE / Maximum transfection efficiency, MW (mean value), Helper lipid: CHOL / Maximum transfection efficiency, MW (mean value), Helper lipid: without: pEGFPLuc plasmid, point is thousands separator; for Maximum transfection efficiency, MW (mean value), Helper lipid: DOPE: cationic/helper lipid 1:0.5 with DOPE; for Maximum transfection efficiency, MW (mean value), Helper lipid: DOPE / Maximum transfection efficiency, MW (mean value), Helper lipid: CHOL: at the LDR giving the maximum; for Maximum transfection efficiency, MW (mean value), Helper lipid: CHOL: cationic/helper lipid 1:0.5 with cholesterol; for Maximum transfection efficiency, MW (mean value), Helper lipid: without: no helper lipid, at the LDR (1:1-15:1) giving the maximum; for times higher activity in only one of the helper lipid combinations: best combination against the other combinations
Protocol: Screening the combinatorial lipid library for lipofection properties: Goal of this first step was to compare transfection efficiency of these structurally related cationic lipids with systematically modified hydrocarbon chain compositions for the development of suitable lipofection reagents and protocols and to study the relationship between structure and transfection efficiency of this new class of cationic lipids for gene transfer. All lipids (MS-1 to MS-50, table 1) were tested using a standard protocol: From each lipid, twenty four different lipoplexes were formed containing either no helper lipid or the helper lipids DOPE and CHOL at molar amounts (1:0.5), respectively, using eight different lipid:DNA-charge ratios (LDR) from 1:1 - 15:1, resulting in a lipofection profile for each lipid. The COS-7 cell-line was used for this lipofection study since COS-7 is easy to transfect and differences between the lipids are easy to identify.
Cell culture: SV40 transformed African green monkey kidney cell line COS-7 (ATCC CRL-1651) was routinely passaged in DMEM (GIBCO BRL, Karlsruhe, Germany), respectively, supplemented with 1% L-glutamin solution (100x), 1% Penicillin/Streptomycin solution (100x) (GIBCO BRL, Karlsruhe, Germany), and 10% FCS (BioWhittaker, Verviers, Belgium) at 37°C with 5% CO2 in humidified atmosphere. For the screening cells were maintained in 96-well culture plates (Greiner, Frickenhausen, Germany) in 100 µl DMEM, 10 % FCS, 1 % Penicillin-streptomycin in a humidified atmosphere at 37 °C/5 % CO2. 24 h prior to transfection, the cells were seeded into the microtiter plate at 10,000 cells per well to reach a confluency of 50 % at the time of transfection. Dendritic cells: Dendritic cells (DC) were derived from highly purified circulating CD14(+) monocytes: In a first step, peripheral blood mononuclear leukocytes (PBL) from healthy control persons were isolated by Ficoll-Paque (Pharmacia Biotech AB, Uppsala, Sweden) density centrifugation. The following immunomagnetic purification of the monocytes from PBL was performed using CD14 Microbeads and MiniMACS high gradient magnetic separation columns (Miltenyi Biotech, Bergisch Gladbach, Germany) according to manufacturer's instructions. Isolated monocytes (5 x 10^5/well) were cultured in RPMI supplemented with 10 % FCS, or serum-free Macrophage-SFM medium (GIBCO BRL, Karlsruhe, Germany) supplemented with human recombinant GM-CSF (0.05µg/ml) and IL-4 (0.025µg/ml) (PromoCell, Heidelberg, Germany) in 6-well plates. Aliquots of the cells were reanalyzed by FACS with anti-CD14 mAbs (Pharmingen, San Diego, CA). After 5-6 days non-adherent cells were collected and purity of DCs was determined by FACS analysis using a FACSort flow cytometer (Becton Dickinson, Mountain View, CA) and the CellQuest software for data processing as recently described (Jantscheff, P. et al., J. Immunol. Methods 163(1):91-7 (1993)).

Row | Structure (SMILES) | Maximum transfection efficiency, MW (mean value), Helper lipid: DOPE [RLU] | Maximum transfection efficiency, MW (mean value), Helper lipid: CHOL [RLU] | Maximum transfection efficiency, MW (mean value), Helper lipid: without [RLU] | times higher activity in only one of the helper lipid combinations
1 | CCCCCCCCCCCCCCCCN(CCCCCCCCCCCCCCCC)[C@@H](CO)C(=O)NCCCCCCN [compound 23] | 27.118 | 16.398 | 14.969 | 
2 | CCCCCCCC/C=C\CCCCCCCCN(CCCCCCCC/C=C\CCCCCCCC)[C@@H](CO)C(=O)NCCN [compound 5] | 22.324 | 7.344 | 7.395 | 
3 | CCCCCCCCCCCCCCCCCC[N+](C)(CCCCCCCCCCCCCCCCCC)[C@@H](CO)C(=O)NCCCN [compound 34] | 5.085 | 42.068 | 21.056 | 
4 | CCCCCCCC/C=C\CCCCCCCC[N+](C)(CCCCCCCC/C=C\CCCCCCCC)[C@@H](CO)C(=O)NCCCN [compound 35] | 43.284 | 56.949 | 34.736 | 
5 | CCCCCCCCCCCCCCCC[N+](C)(CCCCCCCCCCCCCCCC)[C@@H](CO)C(=O)NCCCN [MS-33] |  |  |  | 2.5 - 11.5 times
6 | CCCCCCCCCCCCN(CCCCCCCCCCCC)[C@@H](CO)C(=O)NCCCN [compound 6] | 6.392 | 583 | 944 | 
7 | CCCCCCCCCCCC[N+](C)(CCCCCCCCCCCC)[C@@H](CO)C(=O)NCCCCCN [compound 41] | 1.535 | 923 | 946 | 
8 | CCCCCCCCCCCCN(CCCCCCCCCCCC)[C@@H](CO)C(=O)NCCCCCN [compound 16] | 49.071 | 45.849 | 442 | 
9 | CCCCCCCCCCCCCC[N+](C)(CCCCCCCCCCCCCC)[C@@H](CO)C(=O)NCCCCCN [compound 42] | 72.349 | 181.719 | 832 | 
10 | CCCCCCCCCCCCCCCCCCN(CCCCCCCCCCCCCCCCCC)[C@@H](CO)C(=O)NCCCCCN [compound 19] | 11.743 | 45.026 | 1.118 | 
11 | CCCCCCCC/C=C\CCCCCCCCN(CCCCCCCC/C=C\CCCCCCCC)[C@@H](CO)C(=O)NCCCCCN [compound 20] | 26.482 | 67.308 | 31.897 | 
12 | CCCCCCCCCCCCCCCC[N+](C)(CCCCCCCCCCCCCCCC)[C@@H](CO)C(=O)NCCCCN [compound 38] | 71.641 | 156.698 | 30.747 | 
13 | CCCCCCCC/C=C\CCCCCCCC[N+](C)(CCCCCCCC/C=C\CCCCCCCC)[C@@H](CO)C(=O)NCCN [compound 30] | 57.187 | 251.177 | 99.415 | 
14 | CCCCCCCCCCCCCCCCCCN(CCCCCCCCCCCCCCCCCC)[C@@H](CO)C(=O)NCCCN [compound 9] | 10.033 | 76.850 | 2.183 | 
15 | CCCCCCCCCCCCCC[N+](C)(CCCCCCCCCCCCCC)[C@@H](CO)C(=O)NCCCCN [compound 37] | 63.765 | 148.560 | 1.972 | 
16 | CCCCCCCC/C=C\CCCCCCCC[N+](C)(CCCCCCCC/C=C\CCCCCCCC)[C@@H](CO)C(=O)NCCCCCCN [compound 50] | 39.590 | 70.812 | 17.315 | 
17 | CCCCCCCCCCCCCCCC[N+](C)(CCCCCCCCCCCCCCCC)[C@@H](CO)C(=O)NCCCCCCN [compound 48] | 73.318 | 96.148 | 62.022 | 
18 | CCCCCCCCCCCCN(CCCCCCCCCCCC)[C@@H](CO)C(=O)NCCCCN [compound 11] | 2.621 | 327 | 293 | 
19 | CCCCCCCC/C=C\CCCCCCCCN(CCCCCCCC/C=C\CCCCCCCC)[C@@H](CO)C(=O)NCCCCCCN [compound 25] | 44.451 | 12.225 | 23.710 | 
20 | CCCCCCCCCCCCCCCCCCN(CCCCCCCCCCCCCCCCCC)[C@@H](CO)C(=O)NCCN [compound 4] | 4.695 | 131.981 | 2.827 | 
21 | CCCCCCCCCCCCCCCCN(CCCCCCCCCCCCCCCC)[C@@H](CO)C(=O)NCCCN [compound 8] | 38.086 | 22.428 | 6.244 | 
22 | CCCCCCCCCCCCCCN(CCCCCCCCCCCCCC)[C@@H](CO)C(=O)NCCN [compound 2] | 73.117 | 297.074 | 362.300 | 
23 | CCCCCCCCCCCCN(CCCCCCCCCCCC)[C@@H](CO)C(=O)NCCCCCCN [compound 21] | 308.849 | 190.171 | 118.131 | 
24 | CCCCCCCCCCCCCCCC[N+](C)(CCCCCCCCCCCCCCCC)[C@@H](CO)C(=O)NCCN [MS-28] |  |  |  | 2.5 - 11.5 times
25 | CCCCCCCCCCCCCCCCN(CCCCCCCCCCCCCCCC)[C@@H](CO)C(=O)NCCN [compound 3] | 18.255 | 66.096 | 4.049 | 
